Data reported in paper PMC10135059, “Kaurane-Type Diterpenoids as Potential Inhibitors of Dihydrofolate Reductase-Thymidylate Synthase in New World Leishmania Species” (Antibiotics, 2023).

How the values were obtained:
[1] = biological target: L. chagasi PTR1 and DHFR-TS; set-up: method as in PMID 31409157; conditions: L. chagasi PTR1 vs DHFR-TS; cited from earlier work
[2] = biological target: T1, L. major dihydrofolate reductase (LmDHFR), recombinant LmDHFR-TS (Leishmania major, UniProt P07382); experiment: LmDHFR-TS enzyme inhibition assay (spectrophotometric, standard DHFR conditions); format: biochemical
T1 construct: made in house
Procedure: Then, using the Cheng–Prusoff equation and assuming reversible competitive inhibition and a 1:1 stoichiometry, the apparent inhibitory constant (Ki^app) was calculated for the selected kauranes using the IC50 results, as shown in Table 1.
Purification and kinetic characterization of the recombinant LmDHFR-TS protein was performed according to the previously reported procedures. The in vitro evaluation of selected diterpenoids (i.e., 4, 135, 301, 302, 301a, and 302a) for inhibitory activity against LmDHFR-TS was conducted using a spectrophotometric assay under standard DHFR conditions. The assay consisted of LmDHFR (2.7 nM), bovine serum albumin (BSA, 1 mg/mL), N-[tris(hydroxymethyl)-methyl]-2-aminoethanesulfonic acid (TES) buffer (100 mM, pH 7.0, […] β-mercaptoethanol, 2 mM ethylenediaminetetraacetic acid (EDTA)), and nicotinamide adenine dinucleotide phosphate (NADPH, 100 μM) with varying concentrations of the test compounds (0.1–128 μM). The reaction was initiated by adding the substrate (7,8-dihydrofolate (H2F), 20 μM) and was monitored for 360 s at 340 nm (i.e., oxidation of NADPH to NADP+) to determine the initial reaction rate (Vo) through linear regression analysis of the resulting absorbance profile. […] The Ki^app values were finally calculated using the Cheng–Prusoff equation for competitive inhibition with a 1:1 stoichiometry and reversible inhibitor-binding reactions: Ki^app = IC50/(1 + [S]/Km), where [S] is the substrate (H2F) concentration and Km is the Michaelis constant.

[3] = biological target: T1, L. major dihydrofolate reductase (LmDHFR), recombinant LmDHFR-TS; experiment: as above; format: biochemical; conditions: cutoff pIC50 value of the L. major machine learning model
[4] = test system: Leishmania major PTR1 (LmPTR1); set-up: method as in PMID 34063939; conditions: previous study; cited from earlier work
[5] = IC50, LmDHFR 2.7 nM, NADPH 100 μM, H2F 20 μM, test compounds 0.1–128 μM, triplicate

T1 sequence (P07382 whole entry): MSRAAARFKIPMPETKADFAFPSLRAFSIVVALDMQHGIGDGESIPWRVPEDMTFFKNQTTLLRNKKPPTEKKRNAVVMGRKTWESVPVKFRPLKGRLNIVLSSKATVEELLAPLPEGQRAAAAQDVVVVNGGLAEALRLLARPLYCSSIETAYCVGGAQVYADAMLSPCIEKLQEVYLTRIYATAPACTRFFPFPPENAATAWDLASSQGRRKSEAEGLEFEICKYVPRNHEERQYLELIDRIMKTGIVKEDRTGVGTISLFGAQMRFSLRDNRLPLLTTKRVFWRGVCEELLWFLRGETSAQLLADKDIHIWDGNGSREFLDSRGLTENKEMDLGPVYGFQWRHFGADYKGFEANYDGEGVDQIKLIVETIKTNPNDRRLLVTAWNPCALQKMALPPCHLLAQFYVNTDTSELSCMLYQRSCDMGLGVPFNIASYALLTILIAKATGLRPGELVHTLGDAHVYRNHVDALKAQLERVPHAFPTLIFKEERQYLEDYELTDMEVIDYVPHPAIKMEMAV

Compound | Ki^Lc^PTR1/Ki^Lc^DHFR-TS ratio [1] | Ki [2] [µM] | IC50 [2, 5] [µM] | IC50 ([2]; pIC50, pIC50 = −log IC50) [µM] | classification against DHFR-TS [3] | classification against PTR1 [4] | reduction of Ki^app compared to kauranes 301 and 302 ([2]; effect of p-hydroxyl group, 301a vs 301, 302a vs 302) [%] | half-maximal inhibitory concentrations (IC50) against PTR1 [4]
Nc1nc(N)c(Cc2ccccc2)c(CC2CCCCC2)n1 [2,4-diamine, 5-benzyl-6-(cyclohexylmethyl) pyrimidine-2,4-diamine] | 0.68 |  |  |  |  |  |  | 
CC1(C)OCC2(CC34CCC5C(C)(C)C(=O)CCC5(C)C3CCC2C4)O1 (stereo not drawn) [structure 4, 16ß,17-Isopropylidenedioxy-ent-kauran-3-one] |  | 0.81 | 7.6 |  |  |  |  | 
C=C1CC23CCC4C(C)(C(=O)OC5C=C(C)C(O)CC5C(C)C)CCCC4(C)C2CCC1C3 (stereo not drawn) [structure 135, 2β-hydroxy-menth-6-en-5β-yl ent-kaurenoate] |  | 1.2 | 11.2 |  |  |  |  | 
C=C1CC23CCC4C(C)(C(=O)O)C(OC(=O)C=Cc5ccccc5)CCC4(C)C2(O)CCC1C3 (stereo not drawn) [structure 301, 3α-cinnamoyloxy-9β-hydroxy-ent-kaur-16-en-19-oic Acid] |  | 0.94 | 8.8 | < 10 | active | inactive |  | 
C=C1CC23CCC4C(C)(C(=O)O)C(OC(=O)C=Cc5ccc(O)cc5)CCC4(C)C2(O)CCC1C3 (stereo not drawn) [structure 301a, 3α-p-coumaroyloxy-9β-hydroxy-ent-kaur-16-en-19-oic acid] |  | 0.85 | 7.9 | < 10 |  | inactive | 10 | 
C=C1CC23CCC4C(C)(CCC(OC(=O)C=Cc5ccccc5)C4(C)C(=O)O)C2CCC1C3 (stereo not drawn) [structure 302, 3α-cinnamoyloxy-ent-kaur-16-en-19-oic acid] |  | 0.68 | 6.3 | < 10 |  |  |  | less than 10 µg/mL
